Measured values reported in article PMC3361968 (Chemistry & biology, 2012).
pEC50: −log10 of the molar value.

Tests used:
cathepsin B = cathepsin B (Mus musculus, UniProt P10605); assay: activity-based labelling in living RAW cells, SDS-PAGE in-gel fluorescence; format: cell-based
cathepsin S = cathepsin S (Mus musculus, UniProt O70370); assay: as above; format: cell-based

cathepsin B, sequence (P10605 80-126): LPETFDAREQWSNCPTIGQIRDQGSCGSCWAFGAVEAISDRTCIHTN
cathepsin B, sequence (P10605 129-333): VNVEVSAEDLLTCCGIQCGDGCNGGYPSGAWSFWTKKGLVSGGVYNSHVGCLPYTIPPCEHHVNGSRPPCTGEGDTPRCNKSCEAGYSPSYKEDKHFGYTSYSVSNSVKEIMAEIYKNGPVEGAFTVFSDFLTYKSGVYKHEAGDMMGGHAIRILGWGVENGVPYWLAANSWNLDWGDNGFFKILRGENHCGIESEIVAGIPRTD

pEC50 (cathepsin B): 5.80
pEC50 (cathepsin S): 5.89
Structure (SMILES): CCN1C(=CC=CC=CC2=[N+](CCCCCC(=O)NCCCC[C@H](NC(=O)[C@H](Cc3ccccc3)NC(=O)OCc3ccccc3)C(=O)COC(=O)c3c(C)cccc3C)c3ccc(S(=O)(=O)O)cc3C2(C)C)C(C)(C)c2cc(S(=O)(=O)O)ccc21 [GB123]
